Experimental data taken from PubChem BioAssay AID1963863 (Molecular Pharmacology Branch, DTP, NCI, 2024).

Tested on: 931267-113-T-J1-PDC KRAS spheroid with HUVEC/MSC, viability
Assay: Anticancer human tumor 931267-113-T-J1-PDC patient-derived colon adenocarcinoma cell line growth inhibition [KRAS2]
Details: for IC50: curve of first compound; for viability, T/C: stronger effect = lower value
Procedure, shortened: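 KRAS-mutant tumor cells were grown as spheroids with HUVEC endothelial cells and human MSCs as stroma. Targeted agents were tested alone and with KRAS pathway inhibitors. Doses started at or near clinical Cmax, or 10 microM, descending half-log.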

[1] = second compound 0.1 µM, first compound 0.0316 µM
[2] = second compound 0.1 µM, first compound 0.1 µM
[3] = second compound 0.1 µM, first compound 0.316 µM
[4] = second compound 0.1 µM, first compound 1 µM
[5] = second compound 0.1 µM, first compound 3.16 µM
[6] = second compound 0.1 µM, first compound 10 µM
[7] = second compound 0.316 µM, first compound 0.0316 µM
[8] = second compound 0.316 µM, first compound 0.1 µM
[9] = second compound 0.316 µM, first compound 0.316 µM
[10] = second compound 0.316 µM, first compound 1 µM
[11] = second compound 0.316 µM, first compound 3.16 µM
[12] = second compound 0.316 µM, first compound 10 µM
[13] = second compound 1 µM, first compound 0.0316 µM
[14] = second compound 1 µM, first compound 0.1 µM
[15] = second compound 1 µM, first compound 0.316 µM
[16] = second compound 1 µM, first compound 1 µM
[17] = second compound 1 µM, first compound 3.16 µM
[18] = second compound 1 µM, first compound 10 µM
[19] = second compound 3.16 µM, first compound 0.0316 µM
[20] = second compound 3.16 µM, first compound 0.1 µM
[21] = second compound 3.16 µM, first compound 0.316 µM
[22] = second compound 3.16 µM, first compound 1 µM
[23] = second compound 3.16 µM, first compound 3.16 µM
[24] = second compound 3.16 µM, first compound 10 µM
[25] = second compound 10 µM, first compound 0.0316 µM
[26] = second compound 10 µM, first compound 0.1 µM
[27] = second compound 10 µM, first compound 0.316 µM
[28] = second compound 10 µM, first compound 1 µM
[29] = second compound 10 µM, first compound 3.16 µM
[30] = second compound 10 µM, first compound 10 µM
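Further: compound exposure lasted 7 days before the readout.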
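Wherever viability, T/C is given: 100% = DMSO vehicle control viability.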

SMILES | IC50 (second compound 0.1 µM) | IC50 (second compound 0.316 µM) | IC50 (second compound 1 µM) | IC50 (second compound 3.16 µM) | IC50 (second compound 10 µM) | viability, T/C [1] | viability, T/C [2] | viability, T/C [3] | viability, T/C [4] | viability, T/C [5] | viability, T/C [6] | viability, T/C [7] | viability, T/C [8] | viability, T/C [9] | viability, T/C [10] | viability, T/C [11] | viability, T/C [12] | viability, T/C [13] | viability, T/C [14] | viability, T/C [15] | other results
COC(=O)c1ccc2c(C(=Nc3ccc(N(C)C(=O)CN4CCN(C)CC4)cc3)c3ccccc3)c(O)[nH]c2c1 + CNCc1ccccc1-c1csc(C(C)Nc2nc(C)nc3cc(OC)c(OC)cc23)c1 | 480 nM | 356 nM | 452 nM | < 31.6 nM | < 31.6 nM | 65.7% | 81% | 58% | 31% | 0.36% | 0.19% | 76.5% | 86.1% | 55.6% | 2.09% | 0.23% | 0.33% | 84.5% | 99.3% | 72% | viability, T/C [16]: 2.29%; viability, T/C [17]: 0.7%; viability, T/C [18]: 0.32%; viability, T/C [19]: 0.3%; viability, T/C [20]: 0.33%; viability, T/C [21]: 0.17%; viability, T/C [22]: 0.16%; viability, T/C [23]: 0.15%; viability, T/C [24]: 0.2%; viability, T/C [25]: 0.24%; viability, T/C [26]: 0.28%; viability, T/C [27]: 0.13%; viability, T/C [28]: 0.12%; viability, T/C [29]: 0.14%; viability, T/C [30]: 0.29%
COc1cc(Nc2ncc3c(n2)-c2ccc(Cl)cc2C(c2c(F)cccc2OC)=NC3)ccc1C(=O)O + CNCc1ccccc1-c1csc(C(C)Nc2nc(C)nc3cc(OC)c(OC)cc23)c1 | > 10000 nM | > 10000 nM | < 31.6 nM | < 31.6 nM | < 31.6 nM | 78.9% | 87% | 85.5% | 72.3% | 87.4% | 62.1% | 122% | 106% | 154% | 86.6% | 77.5% | 64.2% | 18.7% | 36.5% | 18.4% | viability, T/C [16]: 26%; viability, T/C [17]: 25.9%; viability, T/C [18]: 25.6%; viability, T/C [19]: 0.23%; viability, T/C [20]: 0.31%; viability, T/C [21]: 0.33%; viability, T/C [22]: 0.21%; viability, T/C [23]: 0.2%; viability, T/C [24]: 0.35%; viability, T/C [25]: 0.26%; viability, T/C [26]: 0.16%; viability, T/C [27]: 0.23%; viability, T/C [28]: 0.16%; viability, T/C [29]: 0.16%; viability, T/C [30]: 0.31%
O=C(c1cc(Cc2n[nH]c(=O)c3ccccc23)ccc1F)N1CCN(C(=O)C2CC2)CC1 + CNCc1ccccc1-c1csc(C(C)Nc2nc(C)nc3cc(OC)c(OC)cc23)c1 | > 10000 nM | > 10000 nM | > 10000 nM | < 31.6 nM | < 31.6 nM | 98.8% | 100% | 86.8% | 85.9% | 61.9% | 72.2% | 106% | 88.5% | 98% | 88.5% | 82.7% | 80% | 114% | 113% | 108% | viability, T/C [16]: 96.6%; viability, T/C [17]: 112%; viability, T/C [18]: 75.6%; viability, T/C [19]: 0.55%; viability, T/C [20]: 0.34%; viability, T/C [21]: 0.4%; viability, T/C [22]: 0.47%; viability, T/C [23]: 0.43%; viability, T/C [24]: 0.38%; viability, T/C [25]: 0.16%; viability, T/C [26]: 0.2%; viability, T/C [27]: 0.21%; viability, T/C [28]: 0.61%; viability, T/C [29]: 0.27%; viability, T/C [30]: 0.23%
